Entries after “also recorded” stand apart in the source; their conditions may differ.
Tests used:
HIV-1 = conditions: Neidrig et al 1994; cited from earlier work
HIV-1IIIB virus [1] = assay: Peptide inhibition experiment, U937 culture; type: cell-based; conditions: peptide 200 mg/ml, RT activity in supernatant
Experimental: (§1) A series of overlapping p17 derived 1 5mer peptides were used. The peptides were dissolved in phosphate-buffered saline pH 7.0 and used at a final concentration of 200 mg/ml. For each peptide, 2×10^5 U937 cells were pelleted and resuspended in […] media containing […] of a stock of HIV-1IIIB virus (giving a multiplicity of infection of 0.25) and 200 mg/ml of the appropriate peptide. Following incubation for two days, the cells were pelleted and resuspended in fresh media containing peptide. After a further three days incubation, […] of the culture was removed and added to 1×10^5 C8166 cells in a total volume of […] with the appropriate peptide. Samples of both the U937 and C8166 culture supernatants were taken after a further two and three days incubation and assayed for RT activity. In addition, the C8166 cells were visually inspected for the appearance of syncytia on day three.

HIV-1IIIB virus [2] = assay: Peptide inhibition experiment, C8166 culture; type: cell-based; conditions: peptide 200 mg/ml, RT activity in supernatant
Experimental: as §1

| Substance | inhibitory activity of peptide in previous studies (HIV-1) | RT titer, U937 day 7 (HIV-1IIIB virus [1]; day 7) | RT titer, U937 day 8 (HIV-1IIIB virus [1]; day 8) | RT titer, C8166 day 2 (HIV-1IIIB virus [2]; day 2) | RT titer, C8166 day 3 (HIV-1IIIB virus [2]; day 3) |
| --- | --- | --- | --- | --- | --- |
| 23 to 46: p17 peptide spanning residues 23 to 46 of previous studies (Neidrig et al 1994) (GGKKKYKLKHIVWASRELERFAVN; Matrix protein p17; UniProt P04591 24-47, looked up, fragment) | no inhibitory activity; also recorded: no inhibitory effect | – | – | – | – |
| 47 to 59: inhibitory p17 peptide spanning residues 47 to 59 of previous studies (Neidrig et al 1994) (PGLLETSEGCRQI; Matrix protein p17; UniProt P04591 48-60, looked up, fragment) | inhibitory | – | – | – | – |
| 51-65: p17-derived 15mer peptide, corresponding p17 residues 51-65 (ETSEGCRQILGQLQP; Matrix protein p17; UniProt P04591 52-66, looked up, fragment) [Mutant 51-65] | – | 14.8 × 10^3 cpm/ml | 47.0 × 10^3 cpm/ml | 19.9 × 10^3 cpm/ml | 33.6 × 10^3 cpm/ml |

— patent publication US6287572A, “Anti-HIV peptides and proteins” (Oxford Biomedica (UK) Limited, priority 1997, dated 2001)
